Assay [1] has as its target T1, human p110β subunit of PI3K (PI3Kβ) (Homo sapiens, UniProt P42338).
T1 construct: His6 (N); made in house; host or cells: S. frugiperda 9 (Sf9) insect cells
The experiment in a line: Solid-Phase Lipid Kinase p110β assay. The class given is biochemical. Conditions: recombinant truncated (ΔN 1-108) p110β, 7.5 ng/well; otherwise as PI3Kα assay. On the procedure: To assess inhibition of PI3Kα by compounds, the Maxisorp™ plates were coated with 50 μL/well of a solution containing 50 μg/ml Ptdlns and 50 μg/ml PtdSer dissolved in chloroform:ethanol (3:7). The plates were subsequently air-dried by incubation for at least 2 hours in a fume hood. The reaction was set up by mixing 25 μL/well of assay buffer 2× (100 mM MOPSO/NaOH, 0.2 M NaCl, pH 7.0, 8 mM MgCl2, 2 mg/mL BSA (fatty acid-free)), and 7.5 ng/well PI3Kα in the lipid pre-coated plate. 10× test compounds were added in 2% DMSO. The reaction was started by adding 5 μL/well of a 40 μM ATP mix (final 10 μM ATP; 20 μCi/ml[γ^33P]ATP). After incubation at RT for 2 hours, the reaction was terminated by adding 5 μl/well stop solution (25 mM EDTA, pH 8.0). The plate was then washed twice with Tris-buffered saline (TBS, pH 7.4). Ultima Gold™ (PERKINELMER) scintillation mix was added at 25 μL/well.
(§1) The radioactivity incorporated into the immobilized PI substrate was determined with a BetaPlate Liquid Scintillation Counter (PerkinElmer).
(§2) The inhibition percent at each concentration of compound was calculated, and IC50 values were determined from the inhibition of curve.
A recombinant truncated form (ΔN 1-108) of the human p110β or […] subunit of PI3K with an N-terminal His6-Tag was expressed in S. frugiperda 9 insect cells. […]

Assay [2] addresses T2, human p110α subunit of PI3K (PI3Kα) (Homo sapiens, UniProt P42336).
T2 construct: His6 (N); made in house; host or cells: S. frugiperda 9 (Sf9) insect cells
The experiment in a line: Solid-Phase Lipid Kinase p110α assay. Conditions: recombinant truncated (ΔN 1-108) p110α, 7.5 ng/well; final 10 μM ATP; RT 2 hours. The format is biochemical.
From the text: [Determination of IC50 Values of Compounds in Kinase Assay of PI3Kα]
Phosphatidylinositol (Ptdlns) and phosphatidylserine (PtdSer) were purchased from DOOSAN SERDARY RESEARCH LABORATORIES (Toronto, Canada). Recombinant truncated forms (ΔN 1-108) of the human p110α and p110β subunits of PI3K with N-terminal His6-Tags were expressed in S. frugiperda 9 insect cells. Recombinant human PI3Kγ (full length human PI3K p1107 fused with a His6-tag at the C-terminus expressed in S. frugiperda 9 insect cells) was obtained from ALEXIS BIOCHEMICALS (#201-055-C010; San Diego, Calif.). [γ^33P]ATP and unlabeled ATP were purchased from AMERSHAM PHARMACIA BIOTECH (Buckinghamshire, UK) and ROCHE DIAGNOSTICS (Mannheim, Germany), respectively. Scintillation cocktails Ultima Gold™ scintillation cocktail were purchased from PERKIN ELMER. Maxisorp™ plates were purchased from NALGE NUNC INTERNATIONAL K.K. (Tokyo, Japan). All other chemicals not further specified were from WAKO PURE CHEMICALS (Osaka, Japan). […]
as §1, §2

T2 sequence (P42336 109-1068): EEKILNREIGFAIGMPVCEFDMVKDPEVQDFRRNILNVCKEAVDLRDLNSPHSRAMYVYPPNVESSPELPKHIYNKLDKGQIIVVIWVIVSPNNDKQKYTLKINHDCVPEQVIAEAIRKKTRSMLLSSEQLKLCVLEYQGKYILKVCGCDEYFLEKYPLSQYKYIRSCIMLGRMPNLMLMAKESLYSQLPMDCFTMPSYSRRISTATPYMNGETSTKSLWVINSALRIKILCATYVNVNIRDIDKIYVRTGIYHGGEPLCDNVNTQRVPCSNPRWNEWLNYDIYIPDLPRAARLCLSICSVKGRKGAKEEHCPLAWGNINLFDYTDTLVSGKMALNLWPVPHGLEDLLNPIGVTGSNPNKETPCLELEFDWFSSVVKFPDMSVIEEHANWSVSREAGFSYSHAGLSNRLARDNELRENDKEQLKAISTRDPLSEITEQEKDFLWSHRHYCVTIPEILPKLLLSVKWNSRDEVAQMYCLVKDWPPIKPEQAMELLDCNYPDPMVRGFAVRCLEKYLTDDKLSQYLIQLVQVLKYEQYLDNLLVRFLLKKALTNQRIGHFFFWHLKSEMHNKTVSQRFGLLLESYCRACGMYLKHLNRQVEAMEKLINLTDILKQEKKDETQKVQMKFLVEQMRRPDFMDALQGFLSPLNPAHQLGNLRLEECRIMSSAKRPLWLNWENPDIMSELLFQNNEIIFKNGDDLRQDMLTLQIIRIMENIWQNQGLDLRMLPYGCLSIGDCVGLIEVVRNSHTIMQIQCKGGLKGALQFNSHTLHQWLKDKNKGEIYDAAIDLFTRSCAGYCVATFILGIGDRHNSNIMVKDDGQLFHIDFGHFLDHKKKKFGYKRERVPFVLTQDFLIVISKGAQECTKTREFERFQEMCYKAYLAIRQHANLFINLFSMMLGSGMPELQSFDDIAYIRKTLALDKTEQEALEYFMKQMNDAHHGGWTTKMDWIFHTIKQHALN
T1 sequence (P42338 109-1070): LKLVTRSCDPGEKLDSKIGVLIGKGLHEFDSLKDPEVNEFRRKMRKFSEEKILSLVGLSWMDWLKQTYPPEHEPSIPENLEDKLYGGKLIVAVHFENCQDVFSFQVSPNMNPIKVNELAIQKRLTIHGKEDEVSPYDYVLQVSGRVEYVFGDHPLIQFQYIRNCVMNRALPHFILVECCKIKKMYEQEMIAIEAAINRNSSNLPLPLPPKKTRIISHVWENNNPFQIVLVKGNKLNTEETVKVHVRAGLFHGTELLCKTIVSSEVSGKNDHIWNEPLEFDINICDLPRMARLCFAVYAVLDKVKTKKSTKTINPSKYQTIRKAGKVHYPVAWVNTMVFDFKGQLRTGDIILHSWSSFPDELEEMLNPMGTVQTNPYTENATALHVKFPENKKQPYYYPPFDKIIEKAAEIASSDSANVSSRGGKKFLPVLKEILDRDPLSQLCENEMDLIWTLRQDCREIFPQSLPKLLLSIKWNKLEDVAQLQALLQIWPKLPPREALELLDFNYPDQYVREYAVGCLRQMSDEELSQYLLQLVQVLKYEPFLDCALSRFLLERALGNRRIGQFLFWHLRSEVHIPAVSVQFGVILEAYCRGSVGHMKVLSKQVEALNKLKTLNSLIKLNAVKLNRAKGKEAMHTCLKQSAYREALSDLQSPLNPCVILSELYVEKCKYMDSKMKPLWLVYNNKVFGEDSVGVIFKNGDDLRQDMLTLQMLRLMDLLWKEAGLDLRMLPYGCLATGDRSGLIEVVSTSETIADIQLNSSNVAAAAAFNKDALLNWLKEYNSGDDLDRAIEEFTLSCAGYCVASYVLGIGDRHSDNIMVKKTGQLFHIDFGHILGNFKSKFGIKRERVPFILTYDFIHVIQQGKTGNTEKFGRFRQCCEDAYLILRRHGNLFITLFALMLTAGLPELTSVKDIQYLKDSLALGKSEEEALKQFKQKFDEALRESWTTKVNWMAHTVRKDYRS

What is called IC50 is the concentration needed to halve the response being measured. Consider `COc1c(OCCCN2CCOCC2=O)ccc2c1N=C(NC(=O)c1cnc(N)nc1)N1CCN=C21` [drawing 16, 2-amino-N-{7-methoxy-8-[3-(3-oxomorpholin-4-yl)propoxy]-2,3-dihydroimidazo[1,2-c]quinazolin-5-yl}pyrimidine-5-carboxamide], for which, in assay [1], the IC50 amounted to 13 nM.

Regarding `COc1c(OCCCN2CCOCC2=O)ccc2c1N=C(NC(=O)c1cnc(N)nc1)N1CCN=C21` [drawing 15, 2-amino-N-{7-methoxy-8-[3-(3-oxomorpholin-4-yl)propoxy]-2,3-dihydroimidazo[1,2-c]quinazolin-5-yl}pyrimidine-5-carboxamide], in assay [2], the IC50 was 0.7 nM.
